Laboratory results taken from EPA's CvTdb concentration-time database (doi:10.1093/toxsci/kfy020).

Key:
Test in all cases: concentration in plasma after dosing
[1] = system: rat; settings: dosed: Permethrin, 5.0000000000 mg/kg, oral, male, Sprague-Dawley
[2] = system: rat; settings: dosed: Permethrin, 5.0000000000 mg/kg, oral, male, Sprague-Dawley; remark: listed apart in the source
[3] = system: rat; settings: dosed: Permethrin, 5.0000000000 mg/kg, oral, male, Sprague-Dawley; remark: listed apart in the source
[4] = system: rat; settings: male, Sprague-Dawley
[5] = system: rat; settings: dosed: Permethrin, 1.0000000000 mg/kg, iv, male, Sprague-Dawley
[6] = system: rat; settings: dosed: Permethrin, 5.0000000000 mg/kg, oral, male, Sprague-Dawley; remark: listed apart in the source
[7] = system: rat; settings: dosed: Permethrin, 5.0000000000 mg/kg, oral, male, Sprague-Dawley; remark: listed apart in the source
[8] = system: rat; settings: dosed: Permethrin, 1.0000000000 mg/kg, iv, male, Sprague-Dawley; remark: listed apart in the source
[9] = system: rat; settings: dosed: Dimethenamid, 1.0000000000 mg/kg, iv, male, Sprague-Dawley
[10] = system: rat; settings: dosed: Dimethenamid, 1.0000000000 mg/kg, iv, male, Sprague-Dawley; remark: listed apart in the source
[11] = system: rat; settings: dosed: Dimethenamid, 5.0000000000 mg/kg, oral, male, Sprague-Dawley
[12] = system: rat; settings: 8 h; dosed: Dimethenamid; 5.0000000000 mg/kg; oral; male; Sprague-Dawley
[13] = system: rat; settings: dosed: Dimethenamid, 5.0000000000 mg/kg, oral, male, Sprague-Dawley; remark: listed apart in the source
[14] = system: rat; settings: dosed: Triclosan, 1.0000000000 mg/kg, iv, male, Sprague-Dawley
[15] = system: rat; settings: dosed: Triclosan, 1.0000000000 mg/kg, iv, male, Sprague-Dawley; remark: listed apart in the source
[16] = system: rat; settings: dosed: Triclosan, 1.0000000000 mg/kg, iv, male, Sprague-Dawley; remark: listed apart in the source
[17] = system: rat; settings: dosed: Triclosan, 1.0000000000 mg/kg, iv, male, Sprague-Dawley; remark: listed apart in the source
[18] = system: rat; settings: dosed: Triclosan, 1.0000000000 mg/kg, iv, male, Sprague-Dawley; remark: listed apart in the source
[19] = system: rat; settings: dosed: S-Bioallethrin, 0.8000000000 mg/kg, iv, male, Sprague-Dawley
[20] = system: rat; settings: dosed: S-Bioallethrin, 4.0000000000 mg/kg, oral, male, Sprague-Dawley
[21] = system: rat; settings: dosed: S-Bioallethrin, 0.8000000000 mg/kg, iv, male, Sprague-Dawley; remark: listed apart in the source
[22] = system: rat; settings: dosed: S-Bioallethrin, 0.8000000000 mg/kg, iv, male, Sprague-Dawley; remark: listed apart in the source

CC1(C)C(C=C(Cl)Cl)C1C(=O)OCc1cccc(Oc2ccccc2)c1 (stereo unspecified) [Permethrin]
concentration in plasma [ng/mL]
Settings	0.25 h	0.5 h	1 h	2 h	4 h	8 h	10 min	12 h
[1]	21.3	15.7	18.3	21.5	28.4	15.1	–	–
[2]	–	33.4	87.2	40.8	27.2	–	–	–
[3]	–	8.1	15.2	15.9	–	–	–	–
[5]	–	–	9.5	–	2.1	–	–	–
[6]	–	37	54.2	62.2	48.5	12.3	10.1	1.5
[7]	–	7.1	10.5	14.9	16	7.8	–	3.3
[8]	–	–	–	–	–	–	3	2.9

concentration in plasma [ng/mL], [4], dosed: Permethrin
Settings	0.5 h	1 h	2 h	4 h	8 h	10 min	12 h	48 h
1.0000000000 mg/kg, iv	–	6.7	–	–	–	15.9	–	–
5.0000000000 mg/kg, oral	44.4	64.2	71	53.2	26.1	15	8.4	5.2

COCC(C)N(C(=O)CCl)c1c(C)csc1C (stereo unspecified) [Dimethenamid]
[4], dosed: Dimethenamid
Settings	concentration in plasma [ng/mL]
0.25 h, 5.0000000000 mg/kg, oral	5.3
0.5 h, 1.0000000000 mg/kg, iv	19.3
0.5 h, 5.0000000000 mg/kg, oral	2
1 h, 1.0000000000 mg/kg, iv	7
1 h, 5.0000000000 mg/kg, oral	1.3
2 h, 1.0000000000 mg/kg, iv	1.4
2 h, 5.0000000000 mg/kg, oral	1.9
4 h, 1.0000000000 mg/kg, iv	0.8
4 h, 5.0000000000 mg/kg, oral	1.2
5 min, 1.0000000000 mg/kg, iv	115
8 h, 1.0000000000 mg/kg, iv	0.3
8 h, 5.0000000000 mg/kg, oral	0.5
10 min, 1.0000000000 mg/kg, iv	60.7
12 h, 5.0000000000 mg/kg, oral	0.3
24 h, 5.0000000000 mg/kg, oral	0.3
48 h, 5.0000000000 mg/kg, oral	0.3
72 h, 5.0000000000 mg/kg, oral	0.5

concentration in plasma [ng/mL]
Settings	[9]	[10]	[11]	[13]
0.25 h	–	–	1.8	0.6
0.5 h	14.9	20.9	1.4	0.5
1 h	6.2	7.4	0.6	–
2 h	1.9	2.1	0.7	0.6
4 h	0.6	0.8	1	0.6
5 min	91.9	193	–	–
8 h	–	–	0.5	0.2
10 min	38.1	110	–	–
24 h	–	–	0.2	–
48 h	–	–	0.3	–
72 h	–	–	0.3	–

Settings	concentration in plasma [ng/mL]
[12]	287

Oc1cc(Cl)ccc1Oc1ccc(Cl)cc1Cl [Triclosan]
concentration in plasma [ng/mL]
Settings	0.5 h	1 h	2 h	5 min	10 min	72 h
[14]	200	–	–	903	367	–
[15]	5.7	10.4	5	1	2.1	2.9
[16]	102	24.9	–	469	374	–
[17]	24.8	6.4	–	270	129	6.2
[18]	23.9	6.6	–	72.7	36.7	–

[4], dosed: Triclosan, 1.0000000000 mg/kg, iv
Settings	concentration in plasma [ng/mL]
0.5 h	39.6
5 min	474
10 min	211

C=CCC1=C(C)[C@@H](OC(=O)[C@@H]2[C@@H](C=C(C)C)C2(C)C)CC1=O [S-Bioallethrin]
concentration in plasma [ng/mL]
Settings	0.25 h	0.5 h	1 h	2 h	4 h	5 min	8 h	10 min
[19]	–	31.3	11	2.5	1.6	–	–	30.2
[20]	2.5	2.2	4.9	–	–	–	–	–
[21]	–	13.1	–	6.7	1.9	60.4	–	43.5
[22]	–	24.5	5.2	6.9	2.9	–	1.5	76.7

concentration in plasma [ng/mL], [4], dosed: S-Bioallethrin
Settings	0.5 h	1 h	2 h	4 h	5 min
0.8000000000 mg/kg, iv	2.7	3	3.4	1.6	19.2
4.0000000000 mg/kg, oral	1.6	6	1.2	–	–
